Key:
Format in all cases: binding
TYK2 = target: T1, TYK2 (Homo sapiens, UniProt P29597); assay: Kinobeads assay with immunodetection, TYK2; details: for IC50: Kinobeads assay, mixed Molt4/Ramos lysate, read-out: Inhibition values (IC50) Tyk2
T1 construct: endogenous in cells; host or cells: Molt4 (ATCC CRL-1582) and Ramos (ATCC CRL-1596) cells; mixed lysate 1:2
Experimental: (§1) Determination of the Effect of the Compounds According to the Invention on Janus Kinases (JAK Family) in Kinobeads™ Assays with Immunodetection of Kinases
(§2) The compounds of the present invention as described in the previous examples were tested in a Kinobeads™ assay as described for ZAP-70 (WO-A 2007/137867). Briefly, test compounds (at various concentrations) and the affinity matrix with the immobilized aminopyrido-pyrimidine ligand 24 were added to cell lysate aliquots and allowed to bind to the proteins in the lysate sample. After the incubation time the beads with captured proteins were separated from the lysate. Bound proteins were then eluted and the presence of JAK1, JAK2, JAK3 and TYK2 was detected and quantified using specific antibodies in a dot blot procedure and the Odyssey infrared detection system. Dose response curves for individual kinases were generated and IC50 values calculated. Kinobeads™ assays for ZAP-70 (WO-A 2007/137867) and for kinase selectivity profiling (WO-A 2006/134056) have been previously described.
(§3) The affinity matrix was washed two times with 15 mL of 1×DP buffer containing 0.2% NP40 (IGEPAL® CA-630, Sigma, #13021) and then resuspended in 1×DP buffer containing 0.2% NP40 (3% beads slurry).
(§4) 5×DP buffer: 250 mM Tris-HCl pH 7.4, 25% Glycerol, 7.5 mM MgCl2, 750 mM NaCl, 5 mM Na3VO4; filter the 5×DP buffer through a 0.22 μm filter and store in aliquots at −80° C. The 5×DP buffer is diluted with H2O to 1×DP buffer containing 1 mM DTT and 25 mM NaF.
(§5) Stock solutions of test compounds were prepared in DMSO. In a 96 well plate 30 μL solution of diluted test compounds at 5 mM in DMSO were prepared. Starting with this solution a 1:3 dilution series (9 steps) was prepared. For control experiments (no test compound) a buffer containing 2% DMSO was used.
(§6) Molt4 cells (ATCC catalogue number CRL-1582) and Ramos cells (ATCC catalogue number CRL-1596) were grown in 1 L Spinner flasks (Integra Biosciences, #182101) in suspension in RPMI 1640 medium (Invitrogen, #21875-034) supplemented with 10% Fetal Bovine Serum (Invitrogen) at a density between 0.15×10^6 and 1.2×10^6 cells/mL. Cells were harvested by centrifugation, washed once with 1×PBS buffer (Invitrogen, #14190-094) and cell pellets were frozen in liquid nitrogen and subsequently stored at −80° C. Cells were homogenized in a Potter S homogenizer in lysis buffer: 50 mM Tris-HCl, 0.8% NP40, 5% glycerol, 150 mM NaCl, 1.5 mM MgCl2, 25 mM NaF, 1 mM sodium vanadate, 1 mM DTT, pH 7.5. One complete EDTA-free tablet (protease inhibitor cocktail, Roche Diagnostics, 1873580) per 25 ml, buffer was added. The material was dounced 10 times using a mechanized POTTER S, transferred to 50 mL falcon tubes, incubated for 30 minutes on ice and spun down for 10 minutes at 20,000 g at 4° C. (10,000 rpm in Sorvall SLA600, precooled). The supernatant was transferred to an ultracentrifuge (UZ)-polycarbonate tube (Beckmann, 355654) and spun for 1 hour at 100.000 g at 4° C. (33.500 rpm in Ti50.2, precooled). The supernatant was transferred again to a fresh 50 mL falcon tube, the protein concentration was determined by a Bradford assay (BioRad) and samples containing 50 mg of protein per aliquot were prepared. The samples were immediately used for experiments or frozen in liquid nitrogen and stored frozen at −80° C.
(§7) Cell lysate (approximately 50 mg protein per plate) was thawed in a water bath at room temperature and then stored on ice. To the thawed cell lysate 1×DP 0.8% NP40 buffer containing protease inhibitors (1 tablet for 25 mL buffer; EDTA-free protease inhibitor cocktail; Roche Diagnostics 1873580) was added in order to reach a final protein concentration of 10 mg/mL total protein. The diluted cell lysate was stored on ice. Mixed Molt4/Ramos lysate was prepared by combining one volume of Molt4 lysate and two volumes of Ramos lysate (ratio 1:2). […]

JAK3 = target: T2, JAK3 (Homo sapiens, UniProt P52333); assay: Kinobeads assay with immunodetection, JAK3; details: for IC50: Kinobeads assay, mixed Molt4/Ramos lysate, read-out: Inhibition values (IC50) JAK3
T2 construct: endogenous in cells; host or cells: Molt4 (ATCC CRL-1582) and Ramos (ATCC CRL-1596) cells; mixed lysate 1:2
T2 sequence (P52333 1-1124): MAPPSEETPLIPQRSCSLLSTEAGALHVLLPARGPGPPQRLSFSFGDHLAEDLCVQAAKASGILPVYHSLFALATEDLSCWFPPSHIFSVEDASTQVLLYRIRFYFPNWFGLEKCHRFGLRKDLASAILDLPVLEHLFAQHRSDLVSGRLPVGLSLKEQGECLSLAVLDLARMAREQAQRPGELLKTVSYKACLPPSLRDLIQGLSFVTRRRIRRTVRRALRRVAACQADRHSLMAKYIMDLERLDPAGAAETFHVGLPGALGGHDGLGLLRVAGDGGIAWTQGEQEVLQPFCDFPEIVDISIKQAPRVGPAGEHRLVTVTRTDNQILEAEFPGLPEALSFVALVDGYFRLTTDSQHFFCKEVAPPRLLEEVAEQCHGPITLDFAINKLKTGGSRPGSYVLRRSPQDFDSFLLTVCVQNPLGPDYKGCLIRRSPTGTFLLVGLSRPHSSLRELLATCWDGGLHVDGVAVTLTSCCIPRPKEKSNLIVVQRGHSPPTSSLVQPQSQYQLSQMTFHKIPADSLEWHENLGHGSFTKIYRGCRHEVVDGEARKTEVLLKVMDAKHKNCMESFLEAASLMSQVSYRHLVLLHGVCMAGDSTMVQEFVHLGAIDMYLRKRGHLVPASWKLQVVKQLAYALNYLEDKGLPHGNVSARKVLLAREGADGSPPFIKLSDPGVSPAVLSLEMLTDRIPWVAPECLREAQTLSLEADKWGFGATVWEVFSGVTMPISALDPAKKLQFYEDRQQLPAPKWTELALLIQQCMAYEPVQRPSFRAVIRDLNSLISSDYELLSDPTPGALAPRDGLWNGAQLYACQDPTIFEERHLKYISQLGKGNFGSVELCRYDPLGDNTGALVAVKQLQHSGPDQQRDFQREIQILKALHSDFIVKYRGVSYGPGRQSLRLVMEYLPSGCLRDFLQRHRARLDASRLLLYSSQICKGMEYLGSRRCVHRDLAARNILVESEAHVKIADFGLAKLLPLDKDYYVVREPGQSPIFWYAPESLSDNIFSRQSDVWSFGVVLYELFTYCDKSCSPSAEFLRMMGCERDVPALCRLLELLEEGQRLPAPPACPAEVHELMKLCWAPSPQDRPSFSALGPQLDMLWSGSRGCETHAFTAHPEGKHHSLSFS
Experimental: as §1, §2, §3, §4, §5, §6, §7

JAK1 = target: T3, JAK1 (Homo sapiens, UniProt P23458); assay: Kinobeads assay with immunodetection, JAK1; details: for IC50: Kinobeads assay, mixed Molt4/Ramos lysate, read-out: Inhibition values (IC50) JAK1
T3 construct: endogenous in cells; host or cells: Molt4 (ATCC CRL-1582) and Ramos (ATCC CRL-1596) cells; mixed lysate 1:2
Experimental: as §1, §2, §3, §4, §5, §6, §7

JAK2 = target: T4, JAK2 (Homo sapiens, UniProt O60674); assay: Kinobeads assay with immunodetection, JAK2; details: mixed Molt4/Ramos lysate, read-out: Inhibition values (IC50) JAK2
T4 construct: endogenous in cells; host or cells: Molt4 (ATCC CRL-1582) and Ramos (ATCC CRL-1596) cells; mixed lysate 1:2
Experimental: as §1, §2, §3, §4, §5, §6, §7

T4 sequence (O60674 whole entry): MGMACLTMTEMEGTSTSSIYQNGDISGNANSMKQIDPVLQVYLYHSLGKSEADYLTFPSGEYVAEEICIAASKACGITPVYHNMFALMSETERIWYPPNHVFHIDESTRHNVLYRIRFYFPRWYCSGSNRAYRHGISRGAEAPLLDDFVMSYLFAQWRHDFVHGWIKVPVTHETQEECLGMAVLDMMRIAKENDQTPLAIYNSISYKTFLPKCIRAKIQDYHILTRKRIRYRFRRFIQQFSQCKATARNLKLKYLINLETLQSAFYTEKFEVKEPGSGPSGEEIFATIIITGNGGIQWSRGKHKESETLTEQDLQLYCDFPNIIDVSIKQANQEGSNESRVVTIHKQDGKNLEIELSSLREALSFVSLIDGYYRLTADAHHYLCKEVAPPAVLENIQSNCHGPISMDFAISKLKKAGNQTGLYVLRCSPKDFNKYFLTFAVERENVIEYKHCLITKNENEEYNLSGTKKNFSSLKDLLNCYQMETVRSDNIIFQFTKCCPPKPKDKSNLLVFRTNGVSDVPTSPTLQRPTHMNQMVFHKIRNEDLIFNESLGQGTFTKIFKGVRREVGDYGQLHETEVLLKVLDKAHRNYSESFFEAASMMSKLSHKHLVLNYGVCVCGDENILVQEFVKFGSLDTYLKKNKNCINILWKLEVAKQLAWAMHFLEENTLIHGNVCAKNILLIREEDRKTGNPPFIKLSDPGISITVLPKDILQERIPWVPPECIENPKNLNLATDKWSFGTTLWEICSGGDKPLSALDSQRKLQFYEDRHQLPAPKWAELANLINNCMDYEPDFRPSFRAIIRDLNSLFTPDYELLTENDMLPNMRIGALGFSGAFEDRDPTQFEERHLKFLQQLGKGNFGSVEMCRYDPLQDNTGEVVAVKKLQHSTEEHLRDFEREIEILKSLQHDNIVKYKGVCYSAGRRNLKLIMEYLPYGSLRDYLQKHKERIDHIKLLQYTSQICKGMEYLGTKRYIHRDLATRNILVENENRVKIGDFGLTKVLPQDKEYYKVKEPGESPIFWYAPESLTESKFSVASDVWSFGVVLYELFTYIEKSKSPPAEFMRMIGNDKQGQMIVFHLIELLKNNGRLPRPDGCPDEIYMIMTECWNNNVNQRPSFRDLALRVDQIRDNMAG
T1 sequence (P29597 whole entry): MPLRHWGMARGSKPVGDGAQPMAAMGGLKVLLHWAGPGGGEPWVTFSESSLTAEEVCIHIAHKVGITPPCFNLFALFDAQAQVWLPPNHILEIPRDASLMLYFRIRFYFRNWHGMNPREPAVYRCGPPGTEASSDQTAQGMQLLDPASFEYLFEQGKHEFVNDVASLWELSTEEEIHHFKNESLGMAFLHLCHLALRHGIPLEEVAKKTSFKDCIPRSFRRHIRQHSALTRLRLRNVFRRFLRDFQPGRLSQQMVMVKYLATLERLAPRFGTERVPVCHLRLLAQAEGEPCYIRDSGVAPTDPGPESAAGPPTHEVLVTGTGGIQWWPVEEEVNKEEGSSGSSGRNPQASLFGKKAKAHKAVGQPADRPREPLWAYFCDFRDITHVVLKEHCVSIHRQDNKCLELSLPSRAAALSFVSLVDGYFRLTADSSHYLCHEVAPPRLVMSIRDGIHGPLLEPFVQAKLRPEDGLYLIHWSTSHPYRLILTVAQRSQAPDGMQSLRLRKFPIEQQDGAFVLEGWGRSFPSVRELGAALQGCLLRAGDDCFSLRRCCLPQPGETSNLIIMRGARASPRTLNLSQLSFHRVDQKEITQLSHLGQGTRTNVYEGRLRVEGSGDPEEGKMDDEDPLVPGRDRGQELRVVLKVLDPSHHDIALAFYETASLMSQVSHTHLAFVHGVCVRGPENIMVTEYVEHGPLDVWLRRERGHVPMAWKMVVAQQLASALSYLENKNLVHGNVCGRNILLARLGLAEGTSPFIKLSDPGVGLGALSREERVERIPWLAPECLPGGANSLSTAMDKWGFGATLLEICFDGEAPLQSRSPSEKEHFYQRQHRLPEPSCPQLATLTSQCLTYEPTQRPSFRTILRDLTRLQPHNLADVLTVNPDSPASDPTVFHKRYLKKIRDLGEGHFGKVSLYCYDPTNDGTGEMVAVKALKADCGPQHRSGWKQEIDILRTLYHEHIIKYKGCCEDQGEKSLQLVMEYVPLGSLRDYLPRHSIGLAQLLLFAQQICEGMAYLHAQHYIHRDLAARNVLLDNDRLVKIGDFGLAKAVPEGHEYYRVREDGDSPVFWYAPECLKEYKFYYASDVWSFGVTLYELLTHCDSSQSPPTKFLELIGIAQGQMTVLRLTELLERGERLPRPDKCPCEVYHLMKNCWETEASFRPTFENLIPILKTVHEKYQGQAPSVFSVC
T3 sequence (P23458 whole entry): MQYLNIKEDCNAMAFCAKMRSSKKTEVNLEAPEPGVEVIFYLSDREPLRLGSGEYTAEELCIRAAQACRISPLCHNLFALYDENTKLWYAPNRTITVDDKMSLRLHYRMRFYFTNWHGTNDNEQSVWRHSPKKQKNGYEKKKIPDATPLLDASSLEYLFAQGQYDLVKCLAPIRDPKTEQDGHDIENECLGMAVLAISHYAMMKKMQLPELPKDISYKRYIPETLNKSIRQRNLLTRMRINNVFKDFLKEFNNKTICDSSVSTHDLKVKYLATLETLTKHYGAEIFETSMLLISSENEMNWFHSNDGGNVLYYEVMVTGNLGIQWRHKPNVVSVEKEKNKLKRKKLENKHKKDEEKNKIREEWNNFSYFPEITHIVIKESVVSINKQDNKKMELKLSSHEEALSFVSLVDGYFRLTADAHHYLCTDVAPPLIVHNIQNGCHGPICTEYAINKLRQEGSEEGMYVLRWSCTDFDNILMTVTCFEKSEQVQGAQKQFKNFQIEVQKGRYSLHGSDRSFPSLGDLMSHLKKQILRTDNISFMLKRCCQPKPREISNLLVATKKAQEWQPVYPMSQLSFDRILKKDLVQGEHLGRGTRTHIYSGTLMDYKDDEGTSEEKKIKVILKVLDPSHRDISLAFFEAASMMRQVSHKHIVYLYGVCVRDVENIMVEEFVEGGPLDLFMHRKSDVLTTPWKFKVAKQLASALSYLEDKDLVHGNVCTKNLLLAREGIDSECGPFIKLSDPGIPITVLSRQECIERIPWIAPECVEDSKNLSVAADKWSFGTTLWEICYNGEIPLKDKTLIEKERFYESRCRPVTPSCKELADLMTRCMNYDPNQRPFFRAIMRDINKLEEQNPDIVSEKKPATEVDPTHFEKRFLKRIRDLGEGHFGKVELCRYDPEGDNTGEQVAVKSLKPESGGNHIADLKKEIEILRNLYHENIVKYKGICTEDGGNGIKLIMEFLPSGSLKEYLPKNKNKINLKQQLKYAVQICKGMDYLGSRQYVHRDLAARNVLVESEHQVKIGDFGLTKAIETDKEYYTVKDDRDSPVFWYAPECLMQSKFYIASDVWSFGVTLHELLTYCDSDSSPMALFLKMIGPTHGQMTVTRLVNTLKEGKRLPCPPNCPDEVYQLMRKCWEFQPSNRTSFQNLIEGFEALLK

## CC(=O)N1CC[C@@H](CNc2nc(Nc3cnn(C)c3)ncc2Cl)C1 [Example 26, (S)-1-(3-(((5-chloro-2-((1-methyl-1H-pyrazol-4-yl)amino)pyrimidin-4-yl)amino)methyl)pyrrolidin-1-yl)ethanone]
TYK2
  IC50: 0.1 to 1 µM
JAK3
  IC50: 1 to 10 µM
JAK1
  Selectivity ratio over JAK2, JAK1: JAK1 = 9
  IC50: 0.1 to 1 µM
JAK2
  IC50: 1 to 10 µM

## CC(=O)N1CC[C@@H](CNc2nc(Nc3cnn(CCO)c3)ncc2Cl)C1 [Example 27, (S)-1-(3-(((5-chloro-2-((1-(2-hydroxyethyl)-1H-pyrazol-4-yl)amino)pyrimidin-4-yl)amino)methyl)pyrrolidin-1-yl)ethanone]
TYK2
  IC50: 0.1 to 1 µM
JAK3
  IC50: 0.1 to 1 µM
JAK1
  Selectivity ratio over JAK2, JAK1: JAK1 = 23
  IC50: 0.1 to 1 µM
JAK2
  IC50: 1 to 10 µM

## C=CC(=O)N1CC[C@@H](CNc2nc(Nc3cnn(C)c3)ncc2Cl)C1 [Example 28, (S)-1-(3-(((5-chloro-2-((1-methyl-1H-pyrazol-4-yl)amino)pyrimidin-4-yl)amino)methyl)pyrrolidin-1-yl)prop-2-en-1-one]
TYK2
  IC50: 1 to 10 µM
JAK3
  IC50: 0.1 to 1 µM
JAK1
  IC50: 1 to 10 µM
JAK2
  IC50: > 10 µM

## C=CC(=O)N1CC[C@@H](CNc2nc(Nc3cnn(CCO)c3)ncc2Cl)C1 [Example 29, (S)-1-(3-(((5-chloro-2-((1-(2-hydroxyethyl)-1H-pyrazol-4-yl)amino)pyrimidin-4-yl)amino)methyl)pyrrolidin-1-yl)prop-2-en-1-one]
TYK2
  IC50: 1 to 10 µM
JAK3
  IC50: 0.1 to 1 µM
JAK1
  IC50: 0.1 to 1 µM
JAK2
  IC50: > 10 µM

## Cn1cc(Nc2ncc(Cl)c(NC[C@@H]3CCN(S(C)(=O)=O)C3)n2)cn1 [Example 30, (S)-5-chloro-N^2-(1-methyl-1H-pyrazol-4-yl)-N^4-((1-(methylsulfonyl)pyrrolidin-3-yl)methyl)pyrimidine-2,4-diamine]
TYK2
  IC50: 0.1 to 1 µM
TYK2; Tyk2 over JAK2
  Selectivity ratio over JAK2, Tyk2: Tyk2 = 9
JAK3
  IC50: 0.1 to 1 µM
JAK1
  IC50: 1 to 10 µM
JAK2
  IC50: 1 to 10 µM

## C=CS(=O)(=O)N1CC[C@@H](CNc2nc(Nc3cnn(C)c3)ncc2Cl)C1 [Example 31, (S)-5-chloro-N^2-(1-methyl-1H-pyrazol-4-yl)-N^4-((1-(vinylsulfonyl)pyrrolidin-3-yl)methyl)pyrimidine-2,4-diamine]
TYK2
  IC50: 0.1 to 1 µM
JAK3
  Selectivity ratio over JAK2, JAK3: JAK3 = 190
  IC50: < 0.1 µM
JAK1
  IC50: 0.1 to 1 µM
JAK2
  IC50: 1 to 10 µM

## CC(=O)N1CCCC[C@H]1CNc1nc(Nc2cnn(C)c2)ncc1Cl [Example 32, (S)-1-(2-(((5-chloro-2-((1-methyl-1H-pyrazol-4-yl)amino)pyrimidin-4-yl)amino)methyl)piperidin-1-yl)ethanone]
TYK2
  IC50: 1 to 10 µM
JAK3
  IC50: 1 to 10 µM
JAK1
  IC50: 1 to 10 µM
JAK2
  IC50: > 10 µM

## CC(=O)N1CCCC[C@H]1CNc1nc(Nc2cnn(CCO)c2)ncc1Cl [Example 33, (S)-1-(2-(((5-chloro-2-((1-(2-hydroxyethyl)-1H-pyrazol-4-yl)amino)pyrimidin-4-yl)amino)methyl)piperidin-1-yl)ethanone]
TYK2
  IC50: 1 to 10 µM
JAK3
  IC50: 0.1 to 1 µM
JAK1
  Selectivity ratio over JAK2, JAK1: JAK1 = 20
  IC50: 1 to 10 µM
JAK2
  IC50: > 10 µM

## C=CC(=O)N1CCCC[C@H]1CNc1nc(Nc2cnn(C)c2)ncc1Cl [Example 34, (S)-1-(2-(((5-chloro-2-((1-methyl-1H-pyrazol-4-yl)amino)pyrimidin-4-yl)amino)methyl)piperidin-1-yl)prop-2-en-1-one]
TYK2
  IC50: 1 to 10 µM
JAK3
  IC50: 1 to 10 µM
JAK1
  IC50: 0.1 to 1 µM
JAK2
  IC50: > 10 µM

## C=CC(=O)N1CCCC[C@H]1CNc1nc(Nc2cnn(CCO)c2)ncc1Cl [Example 35, (S)-1-(2-(((5-chloro-2-((1-(2-hydroxyethyl)-1H-pyrazol-4-yl)amino)pyrimidin-4-yl)amino)methyl)piperidin-1-yl)prop-2-en-1-one]
TYK2
  IC50: 1 to 10 µM
JAK3
  IC50: 1 to 10 µM
JAK1
  IC50: 0.1 to 1 µM
JAK2
  IC50: > 10 µM

## Cn1cc(Nc2ncc(Cl)c(NC[C@@H]3CCCCN3S(C)(=O)=O)n2)cn1 [Example 36, (S)-5-chloro-N^2-(1-methyl-1H-pyrazol-4-yl)-N^4-((1-(methylsulfonyl)piperidin-2-yl)methyl)pyrimidine-2,4-diamine]
TYK2
  IC50: 0.1 to 1 µM
JAK3
  Selectivity ratio over JAK2, JAK3: JAK3 = 54
  IC50: 0.1 to 1 µM
JAK1
  IC50: < 0.1 µM
JAK2
  IC50: 1 to 10 µM

## CS(=O)(=O)N1CCCC[C@H]1CNc1nc(Nc2cnn(CCO)c2)ncc1Cl [Example 37, (S)-2-(4-((5-chloro-4-(((1-(methylsulfonyl)piperidin-2-yl)methyl)amino)pyrimidin-2-yl)amino)-1H-pyrazol-1-yl)ethanol]
TYK2
  IC50: 0.1 to 1 µM
JAK3
  Selectivity ratio over JAK2, JAK3: JAK3 = 64
  IC50: < 0.1 µM
JAK1
  IC50: < 0.1 µM
JAK2
  IC50: 1 to 10 µM

## C=CS(=O)(=O)N1CCCC[C@H]1CNc1nc(Nc2cnn(C)c2)ncc1Cl [Example 38, (S)-5-chloro-N^2-(1-methyl-1H-pyrazol-4-yl)-N^4-((1-(vinylsulfonyl)piperidin-2-yl)methyl)pyrimidine-2,4-diamine]
TYK2
  IC50: 0.1 to 1 µM
JAK3
  Selectivity ratio over JAK2, JAK3: JAK3 = 57
  IC50: < 0.1 µM
JAK1
  IC50: 0.1 to 1 µM
JAK2
  IC50: 1 to 10 µM

From patent publication US20150005281A1, “PYRIMIDINE-2,4-DIAMINE DERIVATIVES AS KINASE INHIBITORS” (Cellzome Limited, priority 2011, published 2015)
